Results on 38 compounds are retold here after patent US8962674B2 (Tokyo Institute of Technology, priority 2006, dated 2015).

SMILES strings stand for the structures.

Usually melting point stands for the temperature of the solid-liquid transition.

Consider `O=C(/C=C/c1ccc(O)cc1)CC(=O)/C=C/c1cc(Br)ccc1F` [CU466, (1E,6E)-1-(5-bromo-2-fluorophenyl)-7-(4-hydroxyphenyl)hepta-1,6-diene-3,5-dione], for which the melting point is 177 to 203 °C.

On to `O=C(/C=C/c1ccc(O)cc1)CC(=O)/C=C/c1ccccc1C(F)(F)F` [CU467, (1E,6E)-1-(4-hydroxyphenyl)-7-(2-trifluoromethylphenyl)hepta-1,6-diene-3,5-dione], for which the melting point was in the range of 181 to 185 °C.

As to `O=C(/C=C/c1ccc(O)cc1)CC(=O)/C=C/c1cc(F)cc(F)c1` [CU468, (1E,6E)-1-(3,5-difluorophenyl)-7-(4-hydroxyphenyl)hepta-1,6-diene-3,5-dione], the melting point fell in the range of 153 to 156 °C. With `O=C(/C=C/c1ccc(O)cc1)CC(=O)/C=C/c1ccc(Br)cc1F` [CU471, (1E,6E)-1-(4-bromo-2-fluorophenyl)-7-(4-hydroxyphenyl)hepta-1,6-diene-3,5-dione], the melting point is 223 to 232 °C. Under `O=C(/C=C/c1ccc(O)cc1)CC(=O)/C=C/c1ccccc1-c1ccccc1` [CU472, (1E,6E)-1-(biphenyl-2-yl)-7-(4-hydroxyphenyl)hepta-1,6-diene-3,5-dione] stands 180 to 188 °C; under `O=C(/C=C/c1ccc(O)cc1)CC(=O)/C=C/c1cc(C(F)(F)F)ccc1F` [CU473, (1E,6E)-1-(2-fluoro-5-trifluoromethylphenyl)-7-(4-hydroxyphenyl)hepta-1,6-diene-3,5-dione], 168 to 174 °C; under `CCCN(CCC)C(=O)c1cccc(/C=C/C(=O)CC(=O)/C=C/c2ccc(O)cc2)c1` [CU474, (1E,6E)-1-[3-(di-n-propylaminocarbonyl)phenyl]-7-(4-hydroxyphenyl)hepta-1,6-diene-3,5-dione], 159 to 165 °C. To `COC(=O)c1ccccc1/C=C/C(=O)CC(=O)/C=C/c1ccc(O)cc1` [CU478, (1E,6E)-1-(4-hydroxyphenyl)-7-[2-(methoxycarbonyl)phenyl]hepta-1,6-diene-3,5-dione] belongs 145 to 150 °C. Under `CN(C)C(=O)c1ccccc1/C=C/C(=O)CC(=O)/C=C/c1ccc(O)cc1` [CU479, (1E,6E)-1-[2-(dimethylaminocarbonyl)phenyl]-7-(4-hydroxyphenyl)hepta-1,6-diene-3,5-dione] stands 210 to 218 °C; under `CN(C)S(=O)(=O)c1ccccc1/C=C/C(=O)CC(=O)/C=C/c1ccc(O)cc1` [CU480, (1E,6E)-1-[2-(dimethylaminosulfonyl)phenyl]-7-(4-hydroxyphenyl)hepta-1,6-diene-3,5-dione], 86 to 90 °C. `COc1ccc([N+](=O)[O-])c(/C=C/C(=O)CC(=O)/C=C/c2ccc(O)cc2)c1` [CU481, (1E,6E)-1-(4-hydroxyphenyl)-7-(5-methoxy-2-nitrophenyl)hepta-1,6-diene-3,5-dione] showed a melting point of 151 to 155 °C. To `Nc1ccccc1/C=C/C(=O)CC(=O)/C=C/c1ccc(O)cc1` [CU482, (1E,6E)-1-(2-aminophenyl)-7-(4-hydroxyphenyl)hepta-1,6-diene-3,5-dione] belongs 186 to 193 °C; to `CS(=O)(=O)Oc1ccccc1/C=C/C(=O)CC(=O)/C=C/c1ccc(O)cc1` [CU483, (1E,6E)-1-(4-hydroxyphenyl)-7-[2-(methylsulfonyloxy)phenyl]hepta-1,6-diene-3,5-dione], 163 to 167 °C; to `CSc1ccccc1/C=C/C(=O)CC(=O)/C=C/c1ccc(O)cc1` [CU484, (1E,6E)-1-(4-hydroxyphenyl)-7-[2-(methylthio)phenyl]hepta-1,6-diene-3,5-dione], 157 to 160 °C. To `O=C(/C=C/c1ccc(O)cc1)CC(=O)/C=C/c1ccccc1Br` [CU486, (1E,6E)-1-(2-bromophenyl)-7-(4-hydroxyphenyl)hepta-1,6-diene-3,5-dione] belongs 155 to 159 °C. To `Nc1ccc(O)cc1/C=C/C(=O)CC(=O)/C=C/c1ccc(O)cc1` [CU488, (1E,6E)-1-(2-amino-5-hydroxyphenyl)-7-(4-hydroxyphenyl)hepta-1,6-diene-3,5-dione] belongs 186 to 192 °C; to `Nc1ccc(OCc2ccccc2)cc1/C=C/C(=O)CC(=O)/C=C/c1ccc(O)cc1` [CU489, (1E,6E)-1-(2-amino-5-benzyloxyphenyl)-7-(4-hydroxyphenyl)hepta-1,6-diene-3,5-dione], 175 to 179 °C. With `O=C(/C=C/c1ccc(O)cc1)CC(=O)/C=C/c1cc(OCc2c(F)cccc2Cl)ccc1[N+](=O)[O-]` [CU492, (1E,6E)-1-[5-(2-chloro-6-fluorobenzyloxy)-2-nitrophenyl]-7-(4-hydroxyphenyl)hepta-1,6-diene-3,5-dione], the melting point fell in the range of 180 to 183 °C. To `O=C(/C=C/c1ccc(O)cc1)CC(=O)/C=C/c1cc(OCc2ccc(Cl)cc2Cl)ccc1[N+](=O)[O-]` [CU493, (1E,6E)-1-[5-(2,4-dichlorobenzyloxy)-2-nitrophenyl]-7-(4-hydroxyphenyl)hepta-1,6-diene-3,5-dione] belongs 157 to 161 °C; to `CN(C)c1ccccc1/C=C/C(=O)CC(=O)/C=C/c1ccc(O)cc1` [CU495, (1E,6E)-1-(2-dimethylaminophenyl)-7-(4-hydroxyphenyl)hepta-1,6-diene-3,5-dione], 68 to 72 °C. For the compound `O=C(/C=C/c1ccc(O)cc1)CC(=O)/C=C/c1ccccc1N1CCCC1` [CU496, (1E,6E)-1-(4-hydroxyphenyl)-7-[2-(pyrrolidin-1-yl)phenyl]hepta-1,6-diene-3,5-dione], the melting point is 73 to 80 °C. Under `O=C(/C=C/c1ccc(O)cc1)CC(=O)/C=C/c1ccccc1N1CCCCC1` [CU497, (1E,6E)-1-(4-hydroxyphenyl)-7-[2-(piperidin-1-yl)phenyl]hepta-1,6-diene-3,5-dione] stands 77 to 84 °C.

Consider `O=C(/C=C/c1ccc(O)cc1)CC(=O)/C=C/c1ccccc1N1CCOCC1` [CU498, (1E,6E)-1-(4-hydroxyphenyl)-7-(2-morpholinophenyl)hepta-1,6-diene-3,5-dione], for which the melting point lay in the range of 188 to 192 °C. To `CC(C)(C)OC(=O)N1CCN(c2ccccc2/C=C/C(=O)CC(=O)/C=C/c2ccc(O)cc2)CC1` [CU499, (1E,6E)-1-{2-[4-(tert-butoxycarbonyl)piperazin-1-yl]phenyl}-7-(4-hydroxyphenyl)hepta-1,6-diene-3,5-dione] belongs 115 to 121 °C; to `CS(=O)(=O)N1CCN(c2ccccc2/C=C/C(=O)CC(=O)/C=C/c2ccc(O)cc2)CC1` [CU500, (1E,6E)-1-(4-hydroxyphenyl)-7-{2-[4-(methylsulfonyl)piperazin-1-yl]phenyl}hepta-1,6-diene-3,5-dione], 126 to 131 °C; to `O=C(/C=C/c1ccc(O)cc1)CC(=O)/C=C/c1ccccc1N1CCN(CCO)CC1` [CU501, (1E,6E)-1-{2-[4-(2-hydroxyethyl)piperazin-1-yl]phenyl}-7-(4-hydroxyphenyl)hepta-1,6-diene-3,5-dione], 102 to 110 °C. To `O=C(/C=C/c1ccc(O)cc1)CC(=O)/C=C/c1ccc(Br)cc1N1CCN(CCO)CC1` [CU502, (1E,6E)-1-{4-bromo-2-[4-(2-hydroxyethyl)piperazin-1-yl]phenyl}-7-(4-hydroxyphenyl)hepta-1,6-diene-3,5-dione] belongs 127 to 133 °C; to `O=C(/C=C/c1ccc(O)cc1)CC(=O)/C=C/c1ccc2ccccc2c1-c1ccccc1` [CU503, (1E,6E)-1-(4-hydroxyphenyl)-7-(1-phenylnaphthalen-2-yl)hepta-1,6-diene-3,5-dione], 218 to 222 °C. Under `O=C(/C=C/c1ccc(O)cc1)CC(=O)/C=C/c1cccc(-c2ccccc2)c1` [CU504, (1E,6E)-1-(biphenyl-3-yl)-7-(4-hydroxyphenyl)hepta-1,6-diene-3,5-dione] stands 176 to 182 °C. The compound `CCn1c2ccccc2c2cc(CCC(=O)CC(=O)CCc3ccc(OC)c(O)c3)ccc21` [CU508, 1-(9-ethyl-9H-carbazol-3-yl)-7-(3-hydroxy-4-methoxyphenyl)heptane-3,5-dione] displayed a melting point of 97 to 100 °C.

Take `COc1ccc(O)cc1CCC(=O)CC(=O)CCc1cc(O)ccc1OC` [CU512, 1,7-bis(5-hydroxy-2-methoxyphenyl)heptane-3,5-dione]: the melting point is 163 to 169 °C. To `O=C(/C=C/c1ccc(O)cc1)CC(=O)/C=C/c1ccccc1-c1cccnc1` [CU513, (1E,6E)-1-(4-hydroxyphenyl)-7-[2-(pyridin-3-yl)phenyl]hepta-1,6-diene-3,5-dione] belongs 180 to 189 °C; to `O=C(/C=C/c1ccc(O)cc1)CC(=O)/C=C/c1ccccc1-c1ccncc1` [CU514, (1E,6E)-1-(4-hydroxyphenyl)-7-[2-(pyridin-4-yl)phenyl]hepta-1,6-diene-3,5-dione], 249 to 256 °C; to `COc1cc(O)ccc1/C=C/C(=O)CC(=O)CCc1ccc(O)cc1` [CU517, (E)-1-(4-hydroxy-2-methoxyphenyl)-7-(4-hydroxyphenyl)hept-1-ene-3,5-dione], 131 to 135 °C. Under `CN(C)c1ccc(/C=C/C(=O)CC(=O)CCc2ccc(O)cc2)c2ccccc12` [CU518, (E)-1-(4-dimethylaminonaphthalen-1-yl)-7-(4-hydroxyphenyl)hept-1-ene-3,5-dione] stands 44 to 49 °C; under `CN(C)c1ccc(/C=C/C(=O)CC(=O)CCc2ccc(O)cc2)c([N+](=O)[O-])c1` [CU523, (E)-1-(4-dimethylamino-2-nitrophenyl)-7-(4-hydroxyphenyl)hept-1-ene-3,5-dione], 136 to 142 °C. Turning to `CN(C)c1ccc(/C=C/C(=O)CC(=O)CCc2ccc(O)cc2)c(Cl)c1` [CU524, (E)-1-(2-chloro-4-dimethylaminophenyl)-7-(4-hydroxyphenyl)hept-1-ene-3,5-dione], the melting point fell in the range of 120 to 129 °C. Under `O=C(/C=C/c1ccc(O)cc1)CC(=O)/C=C/c1cc(O)ccc1-c1ccccc1` [CU526, (1E,6E)-1-(4-hydroxybiphenyl-2-yl)-7-(4-hydroxyphenyl)hepta-1,6-diene-3,5-dione] stands 179 to 186 °C.
